Experimental data taken from patent US10350219B2, “Antimicrobial compositions and methods of making the same” (priority 2013, dated 2019).

What was measured:
[1] = Steam sterilization (thermal stability, discoloration); format: physicochemical; conditions: hydrogel
Description: (b) Steam Sterilization • One steam sterilization cycle was imposed on gel prototypes to evaluate their ability to withstand elevated temperatures. The gel samples contained in 15 ml or 50 ml PP tubes or other non-hydrogel prototypes (in sealed foil pouches) were examined post sterilization for any adverse temperature effect on its color, viscosity, texture, phase separation etc.
A majority of the hydrogel prototypes of the present disclosure were tested for their ability to withstand elevated temperatures simply by subjecting them to one steam sterilization cycle. The test samples experienced temperature rises from 20 C to 122 C over 15 min, followed by constant temperature of 122 C for 15 min and finally a cool down from 122 C to ˜40 C over 3 h. Thus, the test samples experienced nearly 3.5 h of hostile temperature condition.
“Steam sterilizable” or “heat stable” or “inert to heat” is defined as having no visible sign of discoloration (color change following exposure that will add shade of black, brown, yellow or purple) after one steam sterilization cycle (122 C for 15 min) that includes periods of warming up and final cool down to room temperature (<40 C).

[2] = Table Lamp Light Exposure Test (TLE), discoloration; format: physicochemical; conditions: gel with glycerol 10%, clay 4%, silver 0.054% weight; for Gel color after continuous light exposure: After 24 h: 60 W table lamp; for Gel color after continuous light exposure: Fresh: 60 W table lamp at 1 to 1.5 feet
Description: (a) Table Lamp Light Exposure Test (TLE) • The samples of the said compositions contained in either glass vials or 15 ml PP tubes (BD Falcon) were placed under a table lamp (turned on) at a distance of 12 to 15 inches for continuous exposure. The incandescent lamp wattage was 60 W. After the desired duration of exposure, the test samples were examined for visible discoloration by holding it against a white plain paper. Non-hydrogel samples were examined against the control samples protected from light.

rats = conditions: cited from earlier work
[3] = theor. silver content 110 ppm, ratio of cyanurate/silver ions 5
[4] = theor. silver content 220 ppm, ratio of cyanurate/silver ions 2.5

Compound	Gel color after continuous light exposure: After 24 h [2]	Gel color after continuous light exposure: Fresh [2]	other results
O=c1[n-]c(=O)[nH]c(=O)[nH]1.O=c1[n-]c(=O)[nH]c(=O)[nH]1.[Ag+].[Na+] [Na[Ag(C3N3O3H2)2], Sodium silver cyanurate ligand complex Na[Ag(C3N3H2O3)2] or its hydrate]			Color after steam sterilization [1, 3]: No discoloration; Color before steam sterilization [1, 3]: Hazy to clear; Color after steam sterilization [1, 4]: No discoloration; Color before steam sterilization [1, 4]: Hazy to clear
O=C([O-])c1ccccc1.[Ag+] [Silver Benzoate]	Brown black		
O=C([O-])CO.[Ag+] [Silver Glycolate]	Brown grey		
C=C(CC(=O)[O-])C(=O)[O-].[Ag+].[Ag+] [Silver Itaconate]	Brown black		
O=C([O-])/C=C\C(=O)O.[Ag+] [Silver Mono-maleate]	Brown yellow	Smooth hazy gel	
O=C([O-])C(O)C(O)C(=O)O.[Ag+] (centres unmarked) [Silver Mono-tartrate]	Brown black	Hazy gel	
CCC(=O)[O-].[Ag+] [Silver Propionate]	Brown black		
O=C1[N-]S(=O)(=O)c2ccccc21.[Ag+] [Silver Saccharinate]		Yellow brown	
O=C(O)c1ccccc1 [benzoic acid]			LD50 (rats): 2530 mg/kg of body weight
O=c1[nH]c(=O)[nH]c(=O)[nH]1 [cyanuric acid]			LD50 (rats): 7700 mg/kg of body weight; lethal dose LD50 (rats; internet source): 7.70 g/kg of body weight
Silver Benzene sulfonate	Brown black	Brown after 0.5 h	
Silver Gluconate	Brown black		
Silver Sorbate	Brown black		
